Test results reported in PubChem BioAssay AID1552 (Sanford-Burnham Center for Chemical Genomics, 2009).
Activity calls are given as the source filed them. How the calls were made is not given here.

The compounds below were run against Ubiquitin-conjugating enzyme E2 N (Homo sapiens) (UniProt P61088) (assay: UBE2N binders by NMR, biophysical, purified protein (AID 1552)). Details: NMR binding to purified UBE2N.
Chain of Ubiquitin-conjugating enzyme E2 N (Homo sapiens) (P61088 whole entry, looked up): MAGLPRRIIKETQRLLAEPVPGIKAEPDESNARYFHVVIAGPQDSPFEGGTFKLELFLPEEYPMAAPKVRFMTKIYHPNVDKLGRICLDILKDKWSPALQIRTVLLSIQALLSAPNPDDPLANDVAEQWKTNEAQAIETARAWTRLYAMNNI

| Compound | Kd |
| --- | --- |
| COCCn1c(C)cc(O)cc1=O | > 4 mM (inactive) |
| O=c1c2ccccc2nc2n1CCCCN2 | > 4 mM (inactive) |
| C(=N\c1nccs1)/c1cccnc1 | > 4 mM (inactive) |
| Fc1cccc(Cl)c1CN1CCNCC1 | > 4 mM (inactive) |
| CC(=O)Nn1c(=O)[nH]c2ccccc2c1=O | > 4 mM (inactive) |
| CC(=O)O[C@]1(C)CC[C@@]23CC1C(C)(C)[C@@H]2CC[C@H]3C | > 4 mM (inactive) |
| CN1CCc2c(sc(N)c2C#N)C1 | > 4 mM (inactive) |
| CC(=O)N1N=C(N)SC1c1cccnc1 (stereo unspecified) | > 4 mM (inactive) |
| Cc1ccc(C)n1CCN1CCNCC1 | > 4 mM (inactive) |
| Cn1nc(C(=O)NCc2cccnc2)c2ccccc2c1=O | > 4 mM (inactive) |
| COc1ccc(C)cc1S(=O)(=O)NC1CCCC1 | > 4 mM (inactive) |
| Nc1ccc2c(c1)N1CCN=C1S2 | > 4 mM (inactive) |
| O=C1C2=C(SCCS2)C(=O)N1CCCO | > 4 mM (inactive) |
| COc1ccc(S(=O)(=O)NCCO)cc1 | > 4 mM (inactive) |
| c1ccc2c(c1)CN1CCCC1=N2 | > 4 mM (inactive) |
| Oc1ccccc1-c1nnco1 | > 4 mM (inactive) |
| C[C@H]1O[C@@H](O[C@H]2[C@@H](O)C[C@H](O[C@H]3[C@@H](O)C[C@H](O[C@H]4CC[C@]5(C)C6CC[C@]7(C)[C@@H](C8=CC(=O)OC8)CC[C@]7(O)C6CC[C@@H]5C4)O[C@@H]3C)O[C@@H]2C)C[C@H](O)[C@@H]1O (stereo partly specified) | > 4 mM (inactive) |
| Cc1ccc(C)c(C(=O)NCc2ccncc2)c1 | > 4 mM (inactive) |
| C=CCCCCCCCCCCCC(O)CC(O)CO (stereo unspecified) (tested in a mixture with another compound) | > 4 mM (inactive) |
| O=C(NN=C1CCCC1)c1ccncc1 | > 4 mM (inactive) |
| Cn1c(=O)cc(N2CCCCC2)[nH]c1=O | > 4 mM (inactive) |
| CC(=O)Nc1ccc(S(=O)(=O)N(C)C)cc1 | > 4 mM (inactive) |
| CC(=O)O[C@@H]1C=C[C@@]2(C)C(C[C@@H](OC(C)=O)[C@@]3(C)C4=CC(=O)O[C@@H](c5ccoc5)[C@]4(C)CCC23)C1(C)C (stereo partly specified) | > 4 mM (inactive) |

| Compound | Kd |
| --- | --- |
| C=C1[C@H]2CC[C@@]3(C)[C@H](c4ccoc4)OC(=O)C[C@]13O[C@H]1C[C@H](O)C(C)(C)[C@H](CC(=O)OC)[C@]12C | > 4 mM (inactive) |
| c1ccc(CSc2ncccn2)cc1 | > 4 mM (inactive) |
| Cc1onc(-c2ccccc2)c1C(=O)Nc1ccncc1 | > 4 mM (inactive) |
| O=C(O)CCNc1n[nH]c(=O)[nH]c1=O | > 4 mM (inactive) |
| COC1=CC(C)[C@@H]2C[C@H]3OC(=O)C[C@H]4C(C)=C(OC)C(=O)C([C@@]34C)[C@@]2(C)C1=O (stereo partly specified) | > 4 mM (inactive) |
| O=C1NC(=O)C2C3C=CC(O3)C12 (stereo unspecified) | > 4 mM (inactive) |
| CN(C)c1ccc(NC(=O)CC(C(=O)O)N(C)C)cc1 (stereo unspecified) | > 4 mM (inactive) |
| Cc1c(C(=O)NCc2ccccn2)oc2ccccc12 | > 4 mM (inactive) |
| CCCCC(Nc1n[nH]c(=O)[nH]c1=O)C(=O)O (stereo unspecified) | > 4 mM (inactive) |
| CNC(=O)COc1cccc2c1CCNC2=O | > 4 mM (inactive) |
| O=C1C=CC(=O)c2c(O)cccc21 | > 4 mM (inactive) |
| O=C(NCc1cccc(Cl)c1)c1cnccn1 | > 4 mM (inactive) |
| O=c1[nH]c(=O)c2[nH]cnc2[nH]1 | > 4 mM (inactive) |
| CCOC(=O)c1ccc2c(c1)nnn2C | > 4 mM (inactive) |
| O=c1cc(O)nc(SCc2ccccc2)[nH]1 | > 4 mM (inactive) |
| COc1ccccc1/C=C/CN1CCOCC1 | > 4 mM (inactive) |
| OC1CCNC2CCCCC12 (stereo unspecified) | > 4 mM (inactive) |
| COc1ccc(/C=C2\SC(N)=NC2=O)cc1 | > 4 mM (inactive) |
| NC(=O)CSCc1ccc(Br)cc1 | > 4 mM (inactive) |
| Nc1nnc(SCc2ccc(F)cc2)s1 | > 4 mM (inactive) |
| CCC1C(=O)OCC1Cc1cncn1C (stereo unspecified) | > 4 mM (inactive) |
| O=C1CSC(=Nc2ccc(O)cc2)N1 | > 4 mM (inactive) |
| O=NN1C(=O)c2ccccc2C1=O | > 4 mM (inactive) |
